{
  "source": "patent US20250302795A1",
  "about": "“SMALL MOLECULE COMPOUNDS WITH NEGATIVE REGULATORY EFFECTS ON Nrf2 SIGNALING [sequence] AND THEIR POTENTIAL APPLICATIONS” (Beijing Hebabiz Biotechnology Co., Inc., priority 2022, published 2025)",
  "assay_type_in_all_cases": "in vivo, rat",
  "key": {"[1]": {"experiment": "Body weight of rats, high-fat diet non-alcoholic steatohepatitis model", "details": "positive control group, in g (unit assumed)", "description": "(§1) The normal control group was fed a standard diet for twelve weeks while the other groups were fed a high-fat diet consisting of 88% basal diet+10% lard+2% cholesterol for twelve weeks. After establishing the model, the drug groups received their respective treatments at a dosage of 10 ml/kg while the normal and model groups received an equal volume of 0.5% CMC-Na solution. The rats were provided with ad libitum access to water and food, while the animal chamber was maintained under controlled conditions of quietness, natural lighting, a temperature of 25±0.5° C., and a humidity level of 55±5%. The rats' body weights were measured once per week and recorded.\nThe rats were weighed weekly to monitor the fluctuations in body weight within each experimental group."}, "[2]": {"tested_on": "rats with non-alcoholic steatohepatitis induced by high-fat diet", "experiment": "Liver indices, non-alcoholic steatohepatitis model induced by high-fat diet", "description": "as §1\n(3) Liver indices was determined by dividing the wet weight of the liver by the body weight of rats and multiplying by 100%, after liver tissue was isolated, washed with normal saline, dried using filter paper, and weighed following blood sampling from the abdominal aorta. (4) HE staining and oil red staining were performed on liver tissue samples obtained from the abdominal aorta of rats. The tissue was fixed in 10% neutral formalin, followed by embedding, slicing, dewaxing, staining, transparency treatment, and sealing using routine procedures. Microscopic examination was conducted to observe the pathological changes in rat liver tissues across different groups. Additionally, the NASH-CRN scoring system was employed to assess NAS scores. (5) Detection of Proteins Associated with Non-Alcoholic Steatohepatitis"}, "[3]": {"tested_on": "rats with nonalcoholic steatohepatitis induced by a high-fat diet and CCl4", "experiment": "Serum biochemical indices, high-fat diet and CCl4 model", "details": "end of tenth week of administration, positive control group", "description": "(§2) Starting from the seventh week, they received subcutaneous injections of a 30% CCl4 olive oil solution at a dosage of 0.2 ml/100 g behind their back twice per week for a total of four times. Once the model was successfully replicated, the corresponding drugs were administered orally (10 ml/kg) in each treatment group, and both the normal control group and the model group received equal volumes of a 0.5% CMC-Na solution once daily for ten consecutive weeks. Throughout the experimental period, the rats were provided with ad libitum access to food and water, while the animal chamber was maintained under controlled conditions of quietness, natural lighting, a temperature of 25±0.5° C., and a humidity level of 55±5%. The rats' body weights were measured once per week and recorded.\n(§3) At the end of the tenth week of administration, all rats underwent a 16-hour fasting period following their final administration and were intraperitoneally injected with a 20% ulinastatin solution (10 ml/kg) for anesthesia. Subsequently, blood samples were collected from the abdominal aorta and allowed to stand for one hour, and then centrifuged at 4° C. for fifteen minutes at a speed of 3000 r/min. Finally, the upper serum was stored at −80° C. Following the instructions provided with the biochemical index detection kit, levels of HDL-C, LDL-C, NEFA, AST, ALT, UA, TC, TG, PCIII, IV-C LN and HA in rat serum were determined.\nAccording to the kit instructions, the concentration of fasting plasma glucose (FPG) in serum was determined using colorimetry, while the concentration of fasting insulin (FINS) in serum was measured through radioimmunoassay."}, "[4]": {"tested_on": "rats with nonalcoholic steatohepatitis induced by a high-fat diet and CCl4", "experiment": "Four indices of serum hepatic fibrosis, high-fat diet and CCl4 model", "details": "positive control group", "description": "as §2, §3"}, "[5]": {"tested_on": "rats with nonalcoholic steatohepatitis induced by a high-fat diet and CCl4", "experiment": "Liver histopathology (HE, oil red, Masson staining), high-fat diet and CCl4 model", "details": "positive control groups and NR218 high-, medium-, low-dose groups", "description": "as §2, with “The normal control group were fed a standard diet while the other groups were exclusively fed a high-fat diet consisting of 88% basal diet +10% lard +2% cholesterol for the initial six weeks. Starting” for “Starting”\nAfter collecting blood samples from the abdominal aorta of rats, the liver tissue was isolated and fixed in a 10% neutral formalin solution. Following standard procedures for embedding, sectioning, dewaxing, staining, clearing, and sealing, the liver tissues were subjected to HE (hematoxylin-eosin), Masson's trichrome, and oil red staining techniques respectively. […]"}},
  "data": [
    {"smiles": "COC(=O)c1cc(OC)c2c(c1-c1c(CO)cc(OC)c3c1OCO3)OCO2", "note": "[Bicyclol]", "values": [
      {"measurement": "body weight", "setting": "[1]; week 0 (pre-administration)", "value": "195.09 ± 3.95"},
      {"measurement": "body weight", "setting": "[1]; week 1 (pre-administration)", "value": "254.99 ± 12.09"},
      {"measurement": "body weight", "setting": "[1]; week 2 (pre-administration)", "value": "307.37 ± 12.92"},
      {"measurement": "body weight", "setting": "[1]; week 3 (pre-administration)", "value": "343.86 ± 17.21"},
      {"measurement": "body weight", "setting": "[1]; week 4 (pre-administration)", "value": "379.51 ± 22.29"},
      {"measurement": "body weight", "setting": "[1]; week 5 (pre-administration)", "value": "413.81 ± 26.94"},
      {"measurement": "body weight", "setting": "[1]; week 6 (pre-administration)", "value": "444.77 ± 32.35"},
      {"measurement": "body weight", "setting": "[1]; week 7 (pre-administration)", "value": "461.64 ± 35.88"},
      {"measurement": "body weight", "setting": "[1]; week 8 (pre-administration)", "value": "493.67 ± 41.04"},
      {"measurement": "body weight", "setting": "[1]; week 9 (pre-administration)", "value": "510.27 ± 41.17"},
      {"measurement": "body weight", "setting": "[1]; week 10 (pre-administration)", "value": "526.93 ± 47.38"},
      {"measurement": "body weight", "setting": "[1]; week 11 (pre-administration)", "value": "541.47 ± 50.20"},
      {"measurement": "body weight", "setting": "[1]; week 12 (pre-administration)", "value": "550.05 ± 58.70"},
      {"measurement": "body weight", "setting": "[1]; week 13", "value": "526.35 ± 68.66"},
      {"measurement": "body weight", "setting": "[1]; week 14", "value": "515.27 ± 58.62"},
      {"measurement": "body weight", "setting": "[1]; week 15", "value": "519.07 ± 54.38"},
      {"measurement": "body weight", "setting": "[1]; week 16", "value": "539.33 ± 58.40"},
      {"measurement": "body weight", "setting": "[1]; week 17", "value": "562.79 ± 61.59"},
      {"measurement": "body weight", "setting": "[1]; week 18", "value": "588.75 ± 70.94"},
      {"measurement": "body weight", "setting": "[1]; week 19", "value": "593.71 ± 72.81"},
      {"measurement": "body weight", "setting": "[1]; week 20", "value": "586.53 ± 112.38"},
      {"measurement": "liver indices versus model group (in words)", "setting": "[2]; NR218 at high, medium and low doses, P<0.01 or P<0.05", "value": "significant decrease compared to the model group"},
      {"measurement": "Liver Indices", "setting": "[2]; high-fat diet model, positive control group", "value": "3.77 ± 1.17", "unit": "%"},
      {"measurement": "HOMA-IR", "setting": "[3]; FPG x FINS/22.5", "value": 5.48},
      {"measurement": "ALT", "setting": "[3]; serum", "value": 44.39, "unit": "U/L"},
      {"measurement": "AST", "setting": "[3]; serum", "value": 66.96, "unit": "U/L"},
      {"measurement": "HDL-C", "setting": "[3]; serum", "value": 1.29, "unit": "mmol/L"},
      {"measurement": "LDL-C", "setting": "[3]; serum", "value": 0.90, "unit": "mmol/L"},
      {"measurement": "NEFA", "setting": "[3]; serum", "value": 0.77, "unit": "mmol/L"},
      {"measurement": "TC", "setting": "[3]; serum", "value": 1.85, "unit": "mmol/L"},
      {"measurement": "TG", "setting": "[3]; serum", "value": 0.63, "unit": "mmol/L"},
      {"measurement": "UA", "setting": "[3]; serum", "value": 126, "unit": "µmol/L"},
      {"measurement": "HA", "setting": "[4]", "value": "45.78 ± 22.99", "unit": "µg/L"},
      {"measurement": "IV-C", "setting": "[4]", "value": "13.22 ± 4.50", "unit": "µg/L"},
      {"measurement": "LN", "setting": "[4]", "value": "110.64 ± 44.60", "unit": "µg/L"},
      {"measurement": "PC-III", "setting": "[4]", "value": "8.78 ± 1.87", "unit": "µg/L"},
      {"measurement": "Oil red O staining of liver tissue (in words)", "setting": "[5]", "value": "significantly ameliorated steatosis severity and reduced lipid droplet content"}
    ]}
  ]
}
